Test results from US9789089B2 (Gilead Sciences, Inc., priority 2013, dated 2017).
Where two headings read alike, the source gives them in different places.

Legend:
[1] = tested on: HIV-IIIb; assay: Test A: Antiviral Assay in MT4 Cells; format: cell-based, HIV-1; settings: read-out: % inhibition at 6 μM
Experimental: Test A: Antiviral Assay in MT4 Cells
(§1) For the antiviral assay, 40 μL of 1× test concentration of 3-fold serially diluted compound in culture medium with 10% FBS was added to each well of a 384-well plate (10 concentrations) in quadruplicate. MT-4 cells were next mixed with HIV-IIIb at an m.o.i of 0.003 for 1 hour, after which time 35 μL of virus/cell mixture (2000 cells) was immediately added to each well containing 40 μL of diluted compound. The plates were then incubated at 37° C. for 5 days. After 5 days of incubation, 25 μl of 2× concentrated CellTiter-Glo™ Reagent (catalog #G7571, Promega Biosciences, Inc., Madison, Wis.) was added to each well containing MT-4 cells. Cell lysis was carried out by incubating at room temperature for 10 min and then chemiluminescence was read.

[2] = Test B: Cytotoxicity assay; format: cell-based; settings: human, uninfected MT-4 cells, same protocol as Test A, CellTiter-Glo
Experimental: as §1
Test B:Cytotoxicity assay
Compound cytotoxicity and the corresponding CC50 values was determined using the same protocol as described in the antiviral assay (Test A) except that uninfected cells were used.

[3] = Human immunodeficiency virus 1, MT4, 120 h, percent inhibition of virus-induced cell killing at 6 μM drug concentration, from the dose response curve, MT-4 cells infected with HIV-IIIb, 5 days
[4] = Human immunodeficiency virus 1, IIIB, MT4, 120 h

Compound | inhibition at 6 µM [1, 3] [%] | CC50 at 5 days [2] [µM] | inhibition at 6 µM [1, 4] [%]
O=C(Cc1c[nH]c2ccc(O)cc12)NC(Cc1cc(F)cc(F)c1)c1cnc(-c2ccc(Cl)cc2)o1 (stereo not shown) [Compound 24, N-(1-(2-(4-chlorophenyl)oxazol-5-yl)-2-(3,5-difluorophenyl)ethyl)-2-(5-hydroxy-1H-indol-3-yl)acetamide] | 5 | 13.6 | –
O=C(Cc1c[nH]c2ccc(F)cc12)N[C@@H](Cc1ccccc1)c1nc(-c2ccccc2)no1 [Compound 18B, (S)-2-(5-fluoro-1H-indol-3-yl)-N-(2-phenyl-1-(3-phenyl-1,2,4-oxadiazol-5-yl)ethyl)acetamide] | – | > 53 | 4
Cc1ccccc1-c1scnc1C(Cc1cc(F)cc(F)c1)NC(=O)Cn1nc(C(F)(F)F)c2c1CCCC2 (stereo not shown) [Compound 14, N-(2-(3,5-difluorophenyl)-1-(5-(o-tolyl)thiazol-4-yl)ethyl)-2-(3-(trifluoromethyl)-4,5,6,7-tetrahydro-1H-indazol-1-yl)acetamide] | 60 | 11.3 | –
O=C(Cn1nc(C(F)(F)F)c2c1CCCC2)N[C@@H](Cc1ccccc1)c1nccn1-c1ccccc1 [Compound 1E, (S)—N-(2-phenyl-1-(1-phenyl-1H-imidazol-2-yl)ethyl)-2-(3-(trifluoromethyl)-4,5,6,7-tetrahydro-1H-indazol-1-yl)acetamide] | – | 21.9 | 83
Cc1nnc(C(Cc2ccccc2)NC(=O)Cc2c[nH]c3ccc(O)cc23)n1-c1ccccc1 (stereo not shown) [Compound 10G, 2-(5-hydroxy-1H-indol-3-yl)-N-(1-(5-methyl-4-phenyl-4H-1,2,4-triazol-3-yl)-2-phenylethyl)acetamide] | 51 | > 53.2 | –
O=C(Cn1nc(C(F)(F)F)c2c1CCCC2)NC(Cc1cc(F)cc(F)c1)c1ncoc1-c1ccc(Cl)cc1 (stereo not shown) [Compound 36, N-(1-(5-(4-chlorophenyl)oxazol-4-yl)-2-(3,5-difluorophenyl)ethyl)-2-(3-(trifluoromethyl)-4,5,6,7-tetrahydro-1H-indazol-1-yl)acetamide] | – | 16.3 | 0
O=C(Cn1nc(C(F)(F)F)c2c1CCCC2)NC(Cc1cc(F)cc(F)c1)c1cnc(-c2ccc(Cl)cc2)o1 (stereo not shown) [Compound 20, N-(1-(2-(4-chlorophenyl)oxazol-5-yl)-2-(3,5-difluorophenyl)ethyl)-2-(3-(trifluoromethyl)-4,5,6,7-tetrahydro-1H-indazol-1-yl)acetamide] | – | 12.2 | 1
O=C(Cc1c[nH]c2ccc(F)cc12)NC(Cc1cc(F)cc(F)c1)c1cnc(-c2ccc(Cl)cc2)o1 (stereo not shown) [Compound 19F, N-(1-(2-(4-chlorophenyl)oxazol-5-yl)-2-(3,5-difluorophenyl)ethyl)-2-(5-fluoro-1H-indol-3-yl)acetamide] | 0 | 9.14 | –
Cc1cc2ncn(CC(=O)NC(Cc3cc(F)cc(F)c3)c3cnc(-c4ccc(Cl)cc4)o3)c2cc1C (stereo not shown) [Compound 23, N-(1-(2-(4-chlorophenyl)oxazol-5-yl)-2-(3,5-difluorophenyl)ethyl)-2-(5,6-dimethyl-1H-benzo[d]imidazol-1-yl)acetamide] | – | 12 | 0
O=C(Cc1c[nH]c2ccc(F)cc12)NC(Cc1cc(F)cc(F)c1)c1ncoc1-c1ccc(Cl)cc1 (stereo not shown) [Compound 37, N-(1-(5-(4-chlorophenyl)oxazol-4-yl)-2-(3,5-difluorophenyl)ethyl)-2-(5-fluoro-1H-indol-3-yl)acetamide] | 0 | 10.2 | –
O=C(Cc1c[nH]c2ccc(F)cc12)N[C@@H](Cc1cc(F)cc(F)c1)c1nnc(-c2ccccc2)o1 [Compound 17B, (S)—N-(2-(3,5-difluorophenyl)-1-(5-phenyl-1,3,4-oxadiazol-2-yl)ethyl)-2-(5-fluoro-1H-indol-3-yl)acetamide] | – | > 53 | 0
